The values that follow are results of earlier work, collected in PMC10055906 (Chemical Science, 2023).

pKd: −log10 of the molar value.

In this data set the target is FGF2 (Homo sapiens, UniProt P09038). The settings on record: read-out: KD (FGF2 affinity).
Chain of FGF2 (P09038 134-288): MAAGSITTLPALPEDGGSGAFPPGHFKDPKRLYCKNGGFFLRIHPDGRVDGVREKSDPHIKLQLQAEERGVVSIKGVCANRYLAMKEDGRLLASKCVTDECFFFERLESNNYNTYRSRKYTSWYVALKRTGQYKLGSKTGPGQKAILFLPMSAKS

As to IdoA-GlcNS(6S)-IdoA(2S)-GlcNS(6S), the pKd is 5.92.

What is called pKd is −log10 of the Kd, conventionally taken in molar units.
